“Also recorded” adds a separate entry of the source.
How the values were obtained:
Myc-CAP-PTEN^−/− cells = assay: Myc-CAP-PTEN−/− cells in vitro (western blotting, cytokine array); assay type: cell-based, mouse; details: 1 μM, 24 hours
Procedure: FIGS. 35A-35D. […] (35A) Myc-CAP-PTEN^−/− cells were treated with copanlisib […] (IC90 concentration) in vitro for 24 hours, and protein extracts were harvested for western blotting analysis with the indicated antibodies to analyze PI3K activation. (35B) Supernatants from (35A) were harvested for cytokine array profiling. n=3 independent in vitro experiments. (35C) Mice bearing Myc-CAP-PTEN^−/− established syngeneic tumors (200 mm^3) were treated with copanlisib (14 mg/kg, every other day, until tumors reached 2000 mm^3). Tumor volumes were monitored daily and graphed. (35D) At the end of treatment, tumors were analyzed by flow cytometry for tumor infiltrating immune cell subsets. n=5 mice per group.
FIGS. 49A and 49B. PTEN-deficient cancer cells have diminished STING expression that can be restored by […] and pan-PI3K inhibitors. (49A) Isogenic MC38, Myc-CAP, ID8, and TRAMP cells (−/+ PTEN) were analyzed for STING mRNA and protein expression by qRT-PCR and western blotting, respectively. (49B) Myc-CAP-PTEN^−/− cells were treated with GSK′771 (PI3Kβ-selective inhibitor, 1 μM) or BKM120 (pan-PI3K inhibitor, 1 μM) for 24 hours, and proteins were analyzed for STING expression and PI3K activation by western blotting.
Cancer Cell Lines and in vitro drug treatments. Transgenic c-myc^hi prostate tumor derived cell line, Myc-CAP and TRAMPC1, ovarian cancer cell line ID8 and murine colon adenocarcinoma line MC38 were obtained from the American Type Culture Collection (ATCC) and passaged in either 1×RPMI/1×DMEM (with phenol) or 1×DMEM (without phenol red) containing 10% fetal bovine serum, 1% penicillin-streptomycin, 2% L-glutamine and 1×ITS. ID8^pten−/−p53−/−cells were a kind gift from Dr. Ian McNeish (Imperial College, London). For generation of STING over expressing cell lines −Myc-CAP^pten+/+ and ID8^pten−/− cells were transfected with commercial available plasmid (DC-Mm22462-SH02, Genecoepia™), sorted and expanded as per protocol. […]

[1] = IC90 concentrations stated for in vitro/ex vivo drug treatments; details: FIG. 50, Myc-CAP-PTEN^−/− tumor suspensions; read-out: IC90 concentration
[2] = tested on: Myc-CAP (STING^lo) tumors; assay: Myc-CAP syngeneic tumor growth; assay type: in vivo, mouse; details: for effect of concomitant agent on anti-tumor response elicited by degarelix/rucaparib/buparlisib (ADT/PARPi/PI3Ki): syngeneic mice
Procedure: FIGS. 25A and 25B. […] (25A-25B) Myc-CAP (STING^lo) tumor-bearing syngeneic mice were treated with the indicated drug(s) until untreated tumors reached approx. 2500 mm^3. Tumor volume curves for duration of treatment are shown.
FIGS. 26A-26D. […] Immunodeficient athymic nude (26A) and NOD-SCID (26B) mice were engrafted with Myc-CAP (STING^lo) tumors and treated with the indicated drug(s) until untreated tumors reached approx. 2000 mm^3. Tumor volume curves for duration of treatment are shown. For 26A-26B, n=3-4 mice per group. (26C-26D) Single-cell suspensions were generated from harvested tumors and analyzed by flow cytometry for the indicated immune cell populations and their activation states. Data are represented relative to CD45+ immune cells. For 26C-26D, n=3-5 animals per treatment group from 2 independent experiments. Significance/p-values were calculated by […].
FIGS. 29A-29M. […] Myc-CAP cancer cells were treated with the indicated drugs singly or in combination for 36 hours. (29A) Cells were stained with anti-mouse specific p-γH2AX antibody and a fluorescently labeled secondary antibody for determination of DNA DSBs, which were quantified by confocal microscopy. (29B) Protein extracts from cells in 29A were analyzed for the indicated pharmacodynamic biomarkers by western blotting; (29C) Annexin V-PI staining was done to assess frequency of live cells (Annexin V^− PI^−) following drug treatment. (29D) Ultracentrifugation was utilized to purify microvesicles (MVs) from supernatants in treatment groups in (29A) and associated DNA DSBs was quantified by Nanodrop®. Independent experiments n=2. (29E) Ultracentrifugation was utilized to purify MVs from supernatants in indicated treatment groups in FIG. 17A, and associated DNA DSBs were quantified by Nanodrop®; n=2 independent experiments. (29F) Syngeneic mice were engrafted with Myc-CAP (STING^lo) cells, and tumors were harvested when the tumor volume reached 400 mm^3. Single cell suspensions of the tumors were treated with the indicated drug(s), in the presence or absence of GW4869 (MV biogenesis inhibitor). (29G) Bone marrow derived macrophage (BMDMs) were co-cultured for 30 hours with supernatants (−/+ exogenous 50 units of DNase I pre-treatment for 30 minutes) from Myc-CAP cells that were treated with the indicated drug(s) for 36 hours. (29H) cGAMP (10 μg/mL) was pre-incubated with 10 units of DNAse I or mock control for 30 minutes and then added to BMDMs for 30 hours. (29I-29L) STING^+/+/STING^−/− BMDMs were co-cultured for 36 hours with supernatants from Myc-CAP and B6-Myc cancer cells that were treated with the indicated drug(s) for 36 hours. Supernatants were collected from 29F-29L at the end of treatment and analyzed for IFNβ1 by ELISA. (29M) Myc-CAP (STING^lo) tumor-bearing mice were treated with the indicated drug(s) until tumors first reached approx. 2500 mm^3. For the degerelix/rucaparib/buparlisib combination, additional cohorts of mice underwent concomitant treatment with STING antagonist H-151 or GW4869. Tumor volume was recorded daily for duration of experiment. For in vitro experiments, n=2 independent experiments and for in vivo experiments n=3-4 animals /group.

[3] = tested on: single cell suspensions derived from Myc-CAP (STING^lo) tumors; assay: Ex vivo reconstitution assay, IFNβ ELISA; assay type: cell-based, mouse; details: ex vivo
Procedure: FIGS. 15A-15E. Differential STING pathway activation within B6-Myc (STING^hi) cell lines and BMDMs relative to Myc-CAP (STING^lo) cells. (15A, 15B) The indicated cancer cell lines and BMDMs were treated with DMXAA (mouse STING agonist) for 1 and 24 hours, respectively, and protein extracts were interrogated for cGAS/STING pathway activation with the indicated antibodies by Western blotting. Supernatants were collected from for IFNβ1 ELISA following 36 hours of treatment with DMXAA (15C, 15D). (15E) Syngeneic Myc-CAP (STING^lo) tumors were processed into single cell suspensions and used for phycoerythrin-based sorting of CD45+ cellular fractions. Equal numbers of cells from these fractions were stimulated with DMXAA. Supernatants were collected at 36 hrs for detection of IFNB1 by ELISA; n=3 independent experiments; Significance/p-values were calculated by one-way Anova (for 15C & 15E) or paired t-test (for 15D); TAM=tumor associated macrophage; s.e.=short exposure; l.e.=long exposure.
FIGS. 29A-29M. PARPi alone induces DNA DSBs, but not apoptosis even in combination with PI3Ki in Myc-CAP (STING^lo) cancer cells; PARPi/PI3Ki combination induces intracellular DNA DSBs and proportionate release of MV surface-associated DNA DSBs from B6-Myc (STINGhi) cancer cells without affecting cellular viability; PARPi/PI3K treatment activates tumor-cell extrinsic cGAS/STING pathway within TAMs in vivo via MV surface-associated DNA DSBs released from tumor cells. Myc-CAP cancer cells were treated with the indicated drugs singly or in combination for 36 hours. (29A) Cells were stained with anti-mouse specific p-γH2AX antibody and a fluorescently labeled secondary antibody for determination of DNA DSBs, which were quantified by confocal microscopy. (29B) Protein extracts from cells in 29A were analyzed for the indicated pharmacodynamic biomarkers by western blotting; (29C) Annexin V-PI staining was done to assess frequency of live cells (Annexin V^− PI^−) following drug treatment. (29D) Ultracentrifugation was utilized to purify microvesicles (MVs) from supernatants in treatment groups in (29A) and associated DNA DSBs was quantified by Nanodrop®. Independent experiments n=2. (29E) Ultracentrifugation was utilized to purify MVs from supernatants in indicated treatment groups in FIG. 17A, and associated DNA DSBs were quantified by Nanodrop®; n=2 independent experiments. (29F) Syngeneic mice were engrafted with Myc-CAP (STING^lo) cells, and tumors were harvested when the tumor volume reached 400 mm^3. Single cell suspensions of the tumors were treated with the indicated drug(s), in the presence or absence of GW4869 (MV biogenesis inhibitor). (29G) Bone marrow derived macrophage (BMDMs) were co-cultured for 30 hours with supernatants (−/+ exogenous 50 units of DNase I pre-treatment for 30 minutes) from Myc-CAP cells that were treated with the indicated drug(s) for 36 hours. (29H) cGAMP (10 μg/mL) was pre-incubated with 10 units of DNAse I or mock control for 30 minutes and then added to BMDMs for 30 hours. (29I-29L) STING^+/+/STING^−/− BMDMs were co-cultured for 36 hours with supernatants from Myc-CAP and B6-Myc cancer cells that were treated with the indicated drug(s) for 36 hours. Supernatants were collected from 29F-29L at the end of treatment and analyzed for IFNβ1 by ELISA. […] Tumor volume was recorded daily for duration of experiment. […] Significance/p-values were calculated by one-way ANOVA. […]

BMDMs = assay: BMDM co-culture with supernatants from drug-treated cancer cells; assay type: cell-based, mouse; details: cGAMP 10 μg/mL, 30 hours
Text: FIGS. 29A-29M. PARPi alone induces DNA DSBs, but not apoptosis even in combination with PI3Ki in Myc-CAP (STING^lo) cancer cells; PARPi/PI3Ki combination induces intracellular DNA DSBs and proportionate release of MV surface-associated DNA DSBs from B6-Myc (STINGhi) cancer cells without affecting cellular viability; PARPi/PI3K treatment activates tumor-cell extrinsic cGAS/STING pathway within TAMs in vivo via MV surface-associated DNA DSBs released from tumor cells. Myc-CAP cancer cells were treated with the indicated drugs singly or in combination for 36 hours. (29A) Cells were stained with anti-mouse specific p-γH2AX antibody and a fluorescently labeled secondary antibody for determination of DNA DSBs, which were quantified by confocal microscopy. (29B) Protein extracts from cells in 29A were analyzed for the indicated pharmacodynamic biomarkers by western blotting; (29C) Annexin V-PI staining was done to assess frequency of live cells (Annexin V^− PI^−) following drug treatment. (29D) Ultracentrifugation was utilized to purify microvesicles (MVs) from supernatants in treatment groups in (29A) and associated DNA DSBs was quantified by Nanodrop®. Independent experiments n=2. (29E) Ultracentrifugation was utilized to purify MVs from supernatants in indicated treatment groups in FIG. 17A, and associated DNA DSBs were quantified by Nanodrop®; n=2 independent experiments. […]

Compound	IC90 [1] [nM]	effect of concomitant agent on anti-tumor response elicited by degarelix/rucaparib/buparlisib (ADT/PARPi/PI3Ki) [2]	further results
Cc1c(Cn2c(C)nc3c(C(=O)O)cc(N4CCOCC4)cc32)cccc1C(F)(F)F [GSK771]	500		STING expression (western blotting) (Myc-CAP-PTEN^−/− cells): restored
O=C(/C=C/c1ccc(/C=C/C(=O)Nc2ccc(C3=NCCN3)cc2)cc1)Nc1ccc(C2=NCCN2)cc1 [GW4869]		abrogated the anti-tumor response; also recorded: significant abrogation	effect of concomitant agent on IFNβ / Type I IFN production following rucaparib/buparlisib (PARPi/PI3Ki) [3]: abolished the IFNβ production; also recorded: Significant down-regulation of Type I IFN production
CCc1ccc(NC(=O)Nc2c[nH]c3ccccc23)cc1 [H-151]		abrogated the anti-tumor response	effect of concomitant agent on anti-tumor response elicited by PARPi/PI3Ki ([2]; c-myc driven murine PC models, immunocompetent mice): abrogated
C[C@H](NC(=O)c1c(N)nn2cccnc12)c1cc2cccc(C#Cc3cnn(C)c3)c2c(=O)n1-c1ccccc1 [IPI549]	500		
Nc1nc2c(ncn2[C@@H]2O[C@@H]3COP(=O)(O)O[C@H]4[C@@H](O)[C@H](n5cnc6c(N)ncnc65)O[C@@H]4COP(=O)(O)O[C@@H]2[C@@H]3O)c(=O)[nH]1 [cGAMP, cyclic guanosine monophosphate-adenosine monophosphate]			Type I IFN production within BMDMs after DNase I pre-treatment of the agent (BMDMs): did not abrogate the Type I IFN production

— patent US20210017607A1, “Methods of Predicting Responsiveness to Cancer Therapies” (The University of Chicago, priority 2019, published 2021)
